One assay deals with VCAM gene expression. The assay is described as follows: Rabbit atherogenic diet model, VCAM mRNA in aorta bow (RNase protection).
For the next assay, the system named is cRel + ER alpha. The assay is described as follows: Transrepression of c-Rel induced reporters, U-2 OS co-transfected with ERα. In kind it is cell-based, human. As to the method: Next was determined whether transrepression by ER is limited to particular NF-κB types, such as c-Rel or RelA, by overexpression of these NF-κB proteins in U-2 OS cells (Table 2). Again, the promoter-reporter constructs for the E-selectin, ICAM and VCAM genes were used in these experiments. Significant activation of these reporters by overexpression of c-Rel was observed. This activation was strongly and reproducibly transrepressed by both ERα and ERβ (Table 2).
Table 2. Estrogen-dependent transrepression of the promoters from E-selectin, VCAM and ICAM and a synthetic NF-κB responsive reporter, measured as the amount of luciferase activity. Transient (co-)transfections of ERα (or ERβ) and reporter were performed in U-2 OS cells. Reporter activity was induced by cellular exposure to Il-1β or by co-transfection of the NF-κB genes c-Rel or RelA. […] For detailed information on the composition of the reporters used, see appendix 1. The hyphen (-) in the table indicates the test with cells without transfected cDNA and no additives in medium; n.d. means: not determined.
For transient transfections, cells were seeded in 6-well plates (2.10^5 cells/well). After two or three days the cells were transfected with reporter, expression vectors and β-galactosidase control vector. Two different experimental settings were used. For testing transrepression of IL-1β induced promoter activity, cells were transfected with 1 μg reporter construct, 1 μg expression vector (containing either ERα, ERβ or GR), and 0.25 μg of β-galactosidase control plasmid. For testing transrepression in combination with c-Rel or ReLA overexpression, cells were transfected with 1 μg reporter construct, 1 μg expression vector (containing either ERα, ERβ or GR) and 0.1 or 1.0 μg expression vector containing c-Rel or RelA and 0.25 μg of β-galactosidase control vector. Equivalent amounts of DNA were obtained by adding the appropriate expression vector that lacks an insert. Transient transfection was performed using lipofectin reagent (Life Technologies). […] The transfected cells were incubated overnight with test compounds prior to cell lysis. Measurement of luciferase and P-galactosidase activity were performed using respectively the luciferase assay system (Promega) and Galacto-light plus (Tropix) according to the manufacturers' protocols and measured on the Victor 1420 multilabel counter, Wallac. Detection of β-galactosidase activity was used as a control for transfection efficiency.

`C[C@]12CC[C@@H]3c4ccc(O)cc4CC[C@H]3[C@@H]1CC[C@@H]2O` [Org E2, 17β-estradiol]: the “VCAM mRNA level (RNase protection, divided by GAPDH signal)” value in the assay on VCAM gene expression (diet 2 weeks, 4 hours after 3 μg/kg s.c.) was determined as 0.004949; with VCAM gene expression (diet 2 weeks, 12 hours after 3 μg/kg s.c.) it was 0.01033; in the assay on VCAM gene expression (diet 4 weeks, 4 hours after 3 μg/kg s.c.) it was 0.005097; in the assay with VCAM gene expression (diet 4 weeks, 12 hours after 3 μg/kg s.c.) it was 0.006225; with VCAM gene expression (diet 8 weeks, 4 hours after 3 μg/kg s.c.), 0.007292; with VCAM gene expression (diet 8 weeks, 12 hours after 3 μg/kg s.c.), 0.009832. The “VCAM mRNA level (RNase protection, divided by GAPDH signal)” value in the assay on VCAM gene expression (diet 18 weeks, 4 hours after 3 μg/kg s.c.) is reported as 0.0345; in the assay with VCAM gene expression (diet 18 weeks, 12 hours after 3 μg/kg s.c.), 0.02017. The “luciferase activity, 3*NFkB-reporter” value with cRel + ER alpha is 5140. Moreover, in the assay with cRel + ER alpha, the “luciferase activity, ELAM+ reporter” value is given as 3256. The “luciferase activity, ELAM− reporter” value with cRel + ER alpha is 569. Further, the “luciferase activity, ICAM reporter” value with cRel + ER alpha is on record as 3514. Besides, the “luciferase activity, VCAM reporter” value in the assay on cRel + ER alpha came to 259.

Values taken from US20060051295A1, “Estrogen receptor interaction with a transcription factor” (priority 2002, published 2006).
